Source: ChEMBL document CHEMBL1201862, “PubChem BioAssay data set” (2004)
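In this assay, cells in 96-well plates receive the compound at five concentrations for 48 hours. Endpoints are linearly interpolated between the surrounding concentrations. GI50: concentration for 50% inhibition of growth.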 Activity calls are given as the source filed them. Rule as the data show it: active = GI50 up to about 1.1 µM and inactive = higher.

How the values were obtained:
Experiment in all cases: growth of human tumour cells (NCI), 48 h
[1] = test system: M14
[2] = test system: NCI-H23
[3] = test system: SK-MEL-28
[4] = test system: MDA-MB-231
[5] = test system: HOP-92
[6] = test system: RXF 393
[7] = test system: HT-29
[8] = test system: BT-549
[9] = test system: EKVX
[10] = test system: NCI-H460
[11] = test system: 786-0
[12] = test system: MDA-N
[13] = test system: SF-268
[14] = test system: HOP-62
[15] = test system: TK-10
[16] = test system: SNB-19
[17] = test system: NCI-H522
[18] = test system: SK-MEL-5
[19] = test system: A549
[20] = test system: RPMI-8226
[21] = test system: MDA-MB-435
[22] = test system: T47D
[23] = test system: OVCAR-4
[24] = test system: HCC 2998
[25] = test system: SW-620
[26] = test system: ACHN
[27] = test system: SF-539
[28] = test system: CCRF-CEM
[29] = test system: Hs-578T
[30] = test system: HCT-15
[31] = test system: A498
[32] = test system: OVCAR-8
[33] = test system: SR
[34] = test system: DU-145
[35] = test system: IGROV-1
[36] = test system: OVCAR-3
[37] = test system: KM12
[38] = test system: K562
[39] = test system: NCI/ADR-RES
[40] = test system: MOLT-4
[41] = test system: NCI-H226
[42] = test system: UACC-257
[43] = test system: SN12C
[44] = test system: COLO 205
[45] = test system: Malme-3M
[46] = test system: PC-3
[47] = test system: HL-60
[48] = test system: HCT-116
[49] = test system: UACC-62
[50] = test system: CAKI-1
[51] = test system: SF-295
[52] = test system: UO-31
[53] = test system: SK-OV-3
[54] = test system: MCF7
[55] = test system: U-251
[56] = test system: LOX IMVI
[57] = test system: OVCAR-5
[58] = test system: SK-MEL-2

CCOC(=O)N1CCN(c2c(C)nc(C)nc2O)CC1
GI50 [1]: > 100 µM (inactive)
GI50 [2]: > 100 µM (inactive)
GI50 [3]: > 100 µM (inactive)
GI50 [4]: > 100 µM (inactive)
GI50 [5]: > 100 µM (inactive)
GI50 [6]: > 100 µM (inactive)
GI50 [7]: > 100 µM (inactive)
GI50 [8]: > 100 µM (inactive)
GI50 [9]: > 100 µM (inactive)
GI50 [10]: > 100 µM (inactive)
GI50 [11]: > 100 µM (inactive)
GI50 [12]: > 100 µM (inactive)
GI50 [13]: > 100 µM (inactive)
GI50 [14]: > 100 µM (inactive)
GI50 [15]: > 100 µM (inactive)
GI50 [16]: > 100 µM (inactive)
GI50 [17]: > 100 µM (inactive)
GI50 [18]: > 100 µM (inactive)
GI50 [19]: > 100 µM (inactive)
GI50 [20]: > 100 µM (inactive)
GI50 [21]: > 100 µM (inactive)
GI50 [22]: > 100 µM (inactive)
GI50 [23]: > 100 µM (inactive)
GI50 [24]: > 100 µM (inactive)
GI50 [25]: > 100 µM (inactive)
GI50 [26]: > 100 µM (inactive)
GI50 [27]: > 100 µM (inactive)
GI50 [28]: > 100 µM (inactive)
GI50 [29]: > 100 µM (inactive)
GI50 [30]: > 100 µM
GI50 [31]: > 100 µM (inactive)
GI50 [32]: > 100 µM (inactive)
GI50 [33]: > 100 µM (inactive)
GI50 [34]: > 100 µM (inactive)
GI50 [35]: > 100 µM (inactive)
GI50 [36]: > 100 µM (inactive)
GI50 [37]: > 100 µM (inactive)
GI50 [38]: > 100 µM (inactive)
GI50 [39]: > 100 µM (inactive)
GI50 [40]: > 100 µM (inactive)
GI50 [41]: > 100 µM (inactive)
GI50 [42]: > 100 µM (inactive)
GI50 [43]: > 100 µM (inactive)
GI50 [44]: > 100 µM (inactive)
GI50 [45]: > 100 µM (inactive)
GI50 [46]: > 100 µM (inactive)
GI50 [47]: > 100 µM (inactive)
GI50 [48]: > 100 µM (inactive)
GI50 [49]: > 100 µM (inactive)
GI50 [50]: > 100 µM (inactive)
GI50 [51]: > 100 µM (inactive)
GI50 [52]: > 100 µM (inactive)
GI50 [53]: > 100 µM (inactive)
GI50 [54]: > 100 µM (inactive)
GI50 [55]: > 100 µM (inactive)
GI50 [56]: > 100 µM (inactive)

Cc1ccsc1/C(S)=N\c1ccc(Cl)c(/C=N/OC(C)(C)C)c1
GI50 [1]: 39 µM (inactive)
GI50 [2]: 24.7 µM (inactive)
GI50 [3]: 28.1 µM (inactive)
GI50 [4]: 21.2 µM (inactive)
GI50 [5]: 18 µM (inactive)
GI50 [6]: 14.8 µM (inactive)
GI50 [7]: 14.1 µM (inactive)
GI50 [8]: 22.9 µM (inactive)
GI50 [9]: 24.6 µM (inactive)
GI50 [10]: 20.3 µM (inactive)
GI50 [11]: 20.9 µM (inactive)
GI50 [12]: 43.1 µM (inactive)
GI50 [57]: > 100 µM (inactive)
GI50 [13]: > 100 µM (inactive)
GI50 [14]: 51.5 µM (inactive)
GI50 [15]: 16.6 µM (inactive)
GI50 [16]: > 100 µM (inactive)
GI50 [17]: 24 µM (inactive)
GI50 [18]: 31.5 µM (inactive)
GI50 [19]: 30.9 µM (inactive)
GI50 [20]: 26.4 µM (inactive)
GI50 [21]: 53.3 µM (inactive)
GI50 [22]: 23.6 µM (inactive)
GI50 [23]: > 100 µM (inactive)
GI50 [24]: 18.5 µM (inactive)
GI50 [25]: 35.3 µM (inactive)
GI50 [26]: 24.5 µM (inactive)
GI50 [27]: 50.5 µM (inactive)
GI50 [28]: 24.2 µM (inactive)
GI50 [58]: 41.8 µM (inactive)
GI50 [29]: 29.7 µM (inactive)
GI50 [30]: 31.2 µM
GI50 [31]: 20.2 µM (inactive)
GI50 [32]: 33 µM (inactive)
GI50 [33]: 19.9 µM (inactive)
GI50 [34]: 25.5 µM (inactive)
GI50 [35]: 28.9 µM (inactive)
GI50 [36]: 83.2 µM (inactive)
GI50 [37]: 25.1 µM (inactive)
GI50 [39]: 23.6 µM (inactive)
GI50 [40]: 12.3 µM (inactive)
GI50 [41]: 24.7 µM (inactive)
GI50 [42]: 17.2 µM (inactive)
GI50 [43]: 27 µM (inactive)
GI50 [44]: 16.3 µM (inactive)
GI50 [45]: 40.2 µM (inactive)
GI50 [46]: 34.4 µM (inactive)
GI50 [47]: 24.2 µM (inactive)
GI50 [48]: 16.4 µM (inactive)
GI50 [49]: 32.4 µM (inactive)
GI50 [50]: 29 µM (inactive)
GI50 [51]: 28.1 µM (inactive)
GI50 [52]: 20.6 µM (inactive)
GI50 [53]: > 100 µM (inactive)
GI50 [54]: 35.2 µM (inactive)
GI50 [55]: 24.3 µM (inactive)
GI50 [56]: 18.6 µM (inactive)
